Reference: patent US10766903B2 (ALMAC DISCOVERY LIMITED, priority 2016, dated 2020)
Read-outs that look alike come from different tables or passages of the source.

Biological target: USP7 (Homo sapiens (Human), UniProt Q93009)
Experiment: USP7 fluorescence polarisation (FP) biochemical assay, ubiquitin-Lys-TAMRA substrate
Settings: average of at least duplicate experiments
Experimental: Measurement of USP7 Inhibitory Activity
USP7 activity was monitored in a fluorescence polarisation (FP) homogeneous assay using the isopeptide ubiquitin-Lys-TAMRA substrate (U-558, Boston Biochem). Full-length USP7 was purchased from Boston Biochem (His6-USP7FL, E-519). Unless otherwise stated, all other reagents were purchased from Sigma-Aldrich. Enzymatic reactions were conducted in black flat-bottom polystyrene 384-well plates (Nunc) and 15 μL total volume. USP7 (2.5 nM, 5 μL) was incubated in assay buffer (50 mM HEPES (pH 7.2), 150 mM NaCl, 0.5 mM EDTA, 5 mM DTT, 0.05% BSA (w/v), 0.05% CHAPS) in the presence or absence of inhibitor (5 μl). Inhibitors were stored as 10 mM DMSO stocks in an inert environment (low humidity, dark, low oxygen, room temperature) using a Storage Pod System and serial dilutions were prepared in buffer just prior to the assay (from 200 to 0.1 μM, 8 dp curve). […] FP was measured every 15 min over a period of 1.5 h (within the linear range of the assay) using a Synergy 4 plate reader (BioTek) exciting at 530 nm and measuring the amount of parallel and perpendicular light at 575 nm. The FP signal was subsequently normalised to the control without compound present.

[1] = USP7 IC50, Table 4, biochemical assay
[2] = Table 4, biochemical assay, read-out: USP7 IC50

Chain of USP7 (Q93009 whole entry): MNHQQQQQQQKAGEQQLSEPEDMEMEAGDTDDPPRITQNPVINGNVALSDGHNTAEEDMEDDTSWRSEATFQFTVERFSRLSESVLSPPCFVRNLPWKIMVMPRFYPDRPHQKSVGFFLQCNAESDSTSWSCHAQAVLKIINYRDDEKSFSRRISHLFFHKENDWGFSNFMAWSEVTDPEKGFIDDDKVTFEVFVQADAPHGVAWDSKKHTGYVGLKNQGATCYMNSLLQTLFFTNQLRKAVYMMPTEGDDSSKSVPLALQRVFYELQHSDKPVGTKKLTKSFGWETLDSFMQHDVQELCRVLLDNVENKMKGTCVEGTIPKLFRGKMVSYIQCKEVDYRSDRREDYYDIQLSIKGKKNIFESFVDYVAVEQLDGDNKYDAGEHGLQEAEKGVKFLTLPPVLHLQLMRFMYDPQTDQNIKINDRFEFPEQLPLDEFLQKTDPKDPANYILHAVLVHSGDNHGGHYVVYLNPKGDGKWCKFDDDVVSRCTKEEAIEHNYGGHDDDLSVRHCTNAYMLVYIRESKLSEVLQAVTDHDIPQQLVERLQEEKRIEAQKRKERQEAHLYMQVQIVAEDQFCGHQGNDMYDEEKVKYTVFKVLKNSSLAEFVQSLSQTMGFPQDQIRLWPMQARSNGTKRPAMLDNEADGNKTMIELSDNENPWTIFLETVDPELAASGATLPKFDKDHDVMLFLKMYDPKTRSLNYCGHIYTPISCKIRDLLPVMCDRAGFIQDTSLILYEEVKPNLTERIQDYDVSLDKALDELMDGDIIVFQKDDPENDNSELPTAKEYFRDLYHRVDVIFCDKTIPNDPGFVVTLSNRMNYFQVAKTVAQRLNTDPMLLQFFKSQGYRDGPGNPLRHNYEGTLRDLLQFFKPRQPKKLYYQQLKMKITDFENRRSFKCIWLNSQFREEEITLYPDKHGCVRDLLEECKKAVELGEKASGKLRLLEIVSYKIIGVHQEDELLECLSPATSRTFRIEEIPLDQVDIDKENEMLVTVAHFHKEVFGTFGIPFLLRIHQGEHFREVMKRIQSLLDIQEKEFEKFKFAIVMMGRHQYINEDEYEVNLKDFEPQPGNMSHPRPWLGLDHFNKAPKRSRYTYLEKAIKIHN

Question: Which IC50 [1] does the source give for C[C@H](CC(=O)N1CCC(O)(Cn2cnc(NCCN3CC[C@@H](F)C3)cc2=O)CC1)c1ccccc1 [Example 73, 6-((2-((R)-3-Fluoropyrrolidin-1-yl)ethyl)amino)-3-((4-hydroxy-1-((R)-3-phenylbutanoyl)piperidin-4-yl)methyl)pyrimidin-4(3H)-one, Formic Acid] here?
Answer: The IC50 was 250 to 999 nM.

Question: C[C@H](CC(=O)N1CCC(O)(Cn2cnc(NCCN3CC[C@H](F)C3)cc2=O)CC1)c1ccccc1 [Example 74, 6-((2-((S)-3-Fluoropyrrolidin-1-yl)ethyl)amino)-3-((4-hydroxy-1-((R)-3-phenylbutanoyl)piperidin-4-yl)methyl)pyrimidin-4(3H)-one, Formic Acid] was tested. Which IC50 [1] did it give?
Answer: Its IC50 is 250 to 999 nM.

Question: Which IC50 [2] does the source give for C[C@@H](N)c1ccc(-c2c3ncn(CC4(O)CCN(C(=O)C[C@H](c5ccccc5)C(F)(F)F)CC4)c(=O)c3nn2C)cc1 [Example 75, 3-(4-((R)-1-Aminoethyl)phenyl)-6-((4-hydroxy-1-((R)-4,4,4-trifluoro-3-phenylbutanoyl)piperidin-4-yl)methyl)-2-methyl-2H-pyrazolo[4,3-d]pyrimidin-7(6H)-one] here?
Answer: Its IC50 is under 250 nM.

Question: For C[C@H](N)c1ccc(-c2c3ncn(CC4(O)CCN(C(=O)C[C@H](c5ccccc5)C(F)(F)F)CC4)c(=O)c3nn2C)cc1 [Example 76, 3-(4-((S)-1-Aminoethyl)phenyl)-6-((4-hydroxy-1-((R)-4,4,4-trifluoro-3-phenylbutanoyl)piperidin-4-yl)methyl)-2-methyl-2H-pyrazolo[4,3-d]pyrimidin-7(6H)-one], which IC50 [2] is on record?
Answer: Its IC50 is under 250 nM.

Question: Which IC50 [2] does the source give for NCc1ccc(-n2cnc3c(=O)n(CC4(O)CCN(C(=O)C[C@H](c5ccccc5)C(F)(F)F)CC4)cnc32)cc1 [Example 77, (R)-9-(4-(Aminomethyl)phenyl)-1-((4-hydroxy-1-(4,4,4-trifluoro-3-phenylbutanoyl)piperidin-4-yl)methyl)-1H-purin-6(9H)-one] here?
Answer: The IC50 was under 250 nM.

Question: Which IC50 [2] does the source give for Cc1nc2c(=O)n(CC3(O)CCN(C(=O)C[C@H](c4ccccc4)C(F)(F)F)CC3)cnc2n1-c1ccc(CN)cc1 [Example 78, (R)-9-(4-(Aminomethyl)phenyl)-1-((4-hydroxy-1-(4,4,4-trifluoro-3-phenylbutanoyl)piperidin-4-yl)methyl)-8-methyl-1H-purin-6(9H)-one] here?
Answer: The IC50 was under 250 nM.

Question: With CN(C)Cc1ccc(-c2c3ncn(CC4(O)CCN(C(=O)C[C@H](c5ccccc5)C(F)(F)F)CC4)c(=O)c3nn2C)cc1 [Example 79, (R)-3-(4-((Dimethylamino)methyl)phenyl)-6-((4-hydroxy-1-(4,4,4-trifluoro-3-phenylbutanoyl)piperidin-4-yl)methyl)-2-methyl-2H-pyrazolo[4,3-d]pyrimidin-7(6H)-one] as the compound, how does the IC50 [2] read?
Answer: Its IC50 is under 250 nM.

Question: Which IC50 [2] does the source give for Cn1nc2c(=O)n(CC3(O)CCN(C(=O)C[C@H](c4ccccc4)C(F)F)CC3)cnc2c1-c1ccc(CN)cc1 [Example 80, (R)-3-(4-(Aminomethyl)phenyl)-6-((1-(4,4-difluoro-3-phenylbutanoyl)-4-hydroxypiperidin-4-yl)methyl)-2-methyl-2H-pyrazolo[4,3-d]pyrimidin-7(6H)-one] here?
Answer: The IC50 was under 250 nM.

Question: With CC(C)c1cc(=O)n(CC2(O)CCN(C(=O)C[C@@H](C)c3ccccc3)CC2)cn1 [Example 81, (R)-3-((4-Hydroxy-1-(3-phenylbutanoyl)piperidin-4-yl)methyl)-6-isopropylpyrimidin-4(3H)-one] as the compound, how does the IC50 [2] read?
Answer: Its IC50 is 1000 to 200000 nM.

Question: Which IC50 [2] does the source give for Cn1nc2c(=O)n(CC3(O)CCN(C(=O)C[C@H](c4ccccc4)C(F)(F)F)CC3)cnc2c1-c1ccc(CN)c(F)c1 [Example 82, (R)-3-(4-(Aminomethyl)-3-fluorophenyl)-6-((4-hydroxy-1-(4,4,4-trifluoro-3-phenylbutanoyl)piperidin-4-yl)methyl)-2-methyl-2H-pyrazolo[4,3-d]pyrimidin-7(6H)-one] here?
Answer: The IC50 was under 250 nM.

Question: For CNCc1ccc(-c2c3ncn(CC4(O)CCN(C(=O)C[C@H](c5ccccc5)C(F)(F)F)CC4)c(=O)c3nn2C)cc1 [Example 83, (R)-6-((4-Hydroxy-1-(4,4,4-trifluoro-3-phenylbutanoyl)piperidin-4-yl)methyl)-2-methyl-3-(4-((methylamino)methyl)phenyl)-2H-pyrazolo[4,3-d]pyrimidin-7(6H)-one], which IC50 [2] is on record?
Answer: The IC50 was under 250 nM.

Question: How did the IC50 [2] turn out when Cn1nc2c(=O)n(CC3(O)CCN(C(=O)C[C@H](c4cc(F)cc(F)c4)C(F)(F)F)CC3)cnc2c1-c1ccc(CN)cc1 [Example 84, (R)-3-(4-(Aminomethyl)phenyl)-6-((1-(3-(3,5-difluorophenyl)-4,4,4-trifluorobutanoyl)-4-hydroxypiperidin-4-yl)methyl)-2-methyl-2H-pyrazolo[4,3-d]pyrimidin-7(6H)-one] was run?
Answer: The IC50 was 1000 to 200000 nM.

Question: How did the IC50 [2] turn out when Cn1nc2c(=O)n(CC3(O)CCN(C(=O)C[C@H](c4ccc(F)cc4)C(F)(F)F)CC3)cnc2c1-c1ccc(CN)cc1 [Example 85, (R)-3-(4-(Aminomethyl)phenyl)-6-((4-hydroxy-1-(4,4,4-trifluoro-3-(4-fluorophenyl)butanoyl)piperidin-4-yl)methyl)-2-methyl-2H-pyrazolo[4,3-d]pyrimidin-7(6H)-one] was run?
Answer: Its IC50 is under 250 nM.

Question: C[C@H](CC(=O)N1CCC(O)(Cn2cnc(NCCN3Cc4cccc(F)c4C3)cc2=O)CC1)c1ccccc1 [Example 86, (R)-6-((2-(4-Fluoroisoindolin-2-yl)ethyl)amino)-3-((4-hydroxy-1-(3-phenylbutanoyl)piperidin-4-yl)methyl)pyrimidin-4(3H)-one, Formic Acid] was tested. Which IC50 [1] did it give?
Answer: The IC50 was 250 to 999 nM.

Question: Cn1nc2c(=O)n(CC3(O)CCN(C(=O)C[C@H](c4ccccc4)C(F)(F)F)CC3)cnc2c1-c1ccc(CCN)cc1 [Example 87, (R)-3-(4-(2-Aminoethyl)phenyl)-6-((4-hydroxy-1-(4,4,4-trifluoro-3-phenylbutanoyl)piperidin-4-yl)methyl)-2-methyl-2H-pyrazolo[4,3-d]pyrimidin-7(6H)-one] was tested. Which IC50 [2] did it give?
Answer: Its IC50 is under 250 nM.

Question: Cn1nc2c(=O)n(CC3(O)CCN(C(=O)C[C@H](c4ccccc4)C(F)(F)F)CC3)cnc2c1-c1ccc(C2(N)CCC2)cc1 [Example 88, (R)-3-(4-(1-Aminocyclobutyl)phenyl)-6-((4-hydroxy-1-(4,4,4-trifluoro-3-phenylbutanoyl)piperidin-4-yl)methyl)-2-methyl-2H-pyrazolo[4,3-d]pyrimidin-7(6H)-one] was tested. Which IC50 [2] did it give?
Answer: The IC50 was under 250 nM.

Question: O=C(C[C@H](c1ccccc1)C(F)F)N1CCC(O)(Cn2cnc(NCCN3CCCC3)cc2=O)CC1 [Example 89, (R)-3-((1-(4,4-Difluoro-3-phenylbutanoyl)-4-hydroxypiperidin-4-yl)methyl)-6-((2-(pyrrolidin-1-yl)ethyl)amino)pyrimidin-4(3H)-one, Formic Acid] was tested. Which IC50 [1] did it give?
Answer: Its IC50 is 250 to 999 nM.

Question: How did the IC50 [2] turn out when CS(=O)(=O)c1nc2ncn(CC3(O)CCN(C(=O)CCc4ccccc4)CC3)c(=O)c2s1 [Example 92, 6-((4-Hydroxy-1-(3-phenylpropanol)piperidin-4-yl)methyl)-2-(methylsulfonyl)thiazolo[4,5-d]pyrimidin-7(6H)-one] was run?
Answer: Its IC50 is 1000 to 200000 nM.

Question: How did the IC50 [2] turn out when CNc1nc2ncn(CC3(O)CCN(C(=O)CCc4ccccc4)CC3)c(=O)c2s1 [Example 93, 6-((4-Hydroxy-1-(3-phenylpropanoyl)piperidin-4-yl)methyl)-2-(methylamino)thiazolo[4,5-d]pyrimidin-7(6H)-one] was run?
Answer: The IC50 was 1000 to 200000 nM.

Question: With Cn1nc2c(=O)n(CC3(O)CCN(C(=O)CCc4ccccc4)CC3)cnc2c1C(F)(F)F [Example 95, 6-((4-Hydroxy-1-(3-phenylpropanoyl)piperidin-4-yl)methyl)-2-methyl-3-(trifluoromethyl)-2H-pyrazolo[4,3-d]pyrimidin-7(6H)-one] as the compound, how does the IC50 [2] read?
Answer: Its IC50 is 1000 to 200000 nM.
